Results: patent US5466675A, “Immunological activity of rhamnolipids” (priority 1992, dated 1995)

Key:
[1] = system: oxazolone-induced delayed type hypersensitivity; assay: immunostimulation (cellular): oxazolone-induced delayed type hypersensitivity; format: in vivo, mouse; settings: for Swelling (R -L) / ear thickness, Left Ear (No Oxa.) / ear thickness, Right Ear (24 hrs Oxa.): X ± SEM
Description: The test substance was administered i.p to groups of 5 mice, 1 hour before application (sensitization) of oxazolone (0.1 ml of 5% solution) to the pre-shaven abdominal surface. Seven days later, 25 μl of a 2% solution of oxazolone was applied (challenge) to the right ear, with vehicle being applied to the left ear. After 24 hours, each mouse was sacrificed and ear thickness measured with a Dyer Model micrometer gauge. Greater than 30 percent enhancement is considered immunostimulant activity.

[2] = system: B-cells isolated from mouse spleens; assay: B-lymphocyte proliferation; format: cell-based; settings: B-cell, 0.5% DMSO, read-out: % Stimulation (+)/Suppression (-)
Description: Procedure: B-cells were isolated from mouse spleens using conventional procedures, and suspended in DMEM. 10^6 cells/ml were incubated overnight at 37° C. to assess stimulation (positive score, related to 1 ug/ml lipopolysaccharide) or suppression (negative score, related to blank control) of cell proliferation. The test substance was evaluated under these conditions at 10, 1, 0.1, 0.01 and 0.001 uM. After overnight incubation, 2 uCi [^3 H] thymidine incorporation was assessed by liquid scintillation counting.

[3] = system: sheep red blood cell (SRBC) hemagglutination; assay: immunosuppression (humoral): sheep red blood cell (SRBC) hemagglutination; format: in vivo, mouse (ICR, female)
Description: (§1) Groups of 6 mice were sensitized by the IV injection of 0.2 ml of a 2% SRBC suspension. On the 9th day following sensitization, blood samples were withdrawn from the orbital sinus and equal parts of complement inactivated serum from the group of 6 mice were pooled to yield a single 0.25 ml sample. Serial 2-fold dilutions were then carried out 10 times in the presence of added complement. […] Serum titers of less than 16 or greater than 128 are considered significant and indicate possible immunosuppressant and immunostimulant activity, respectively.
(§2) For immunostimulant activity, test substance or vehicle was administered i.p. to groups of mice for 3 consecutive days, and sensitized to SRBCs 2 hours after the third (last) injection. For immunosuppressant activity, test substance or vehicle was administered i.p. to groups of mice for 3 consecutive days beginning 2 hours after sensitization to SRBCs.

[4] = system: sheep red blood cell (SRBC) hemagglutination; assay: immunostimulation (humoral): sheep red blood cell (SRBC) hemagglutination; format: in vivo, mouse (ICR, female)
Description: as §1, §2

Candida albicans = assay: minimum inhibitory concentration, Candida albicans; format: cell-based; settings: in tested medium
Excerpt: The Minimum inhibitory concentration (MIC) of Rhamnolipid II for Candida albicans, Escherichia coli, Staphylococcus aureus and Pseudomonas aeruginosa was >0.5% in tested medium.

CCCCCCCC(CC(=O)O)OC(=O)CC(CCCCCCC)O[C@@H]1O[C@@H](C)[C@H](O)[C@@H](O)[C@H]1O[C@@H]1O[C@@H](C)[C@H](O)[C@@H](O)[C@H]1O (stereo partly drawn) [Rhamnolipid (II), (alpha-L-rhamnopyranosyl-(1,2)alpha-L-rhamnopyranosyl)-3-hydroxydecanoyl-3-hydroxydecanoic acid]
Swelling Inc. % ([1]; IP 0.1 × 5 mg/kg): -11%
Swelling (R -L) ([1]; IP 0.1 × 5 mg/kg): 15.4 +/- 1.7 × 0.01 mm
ear thickness, Left Ear (No Oxa.) ([1]; IP 0.1 × 5 mg/kg): 19.4 +/- 1.1 × 0.01 mm
ear thickness, Right Ear (24 hrs Oxa.) ([1]; IP 0.1 × 5 mg/kg): 34.8 +/- 1.8 × 0.01 mm
Swelling Inc. % ([1]; IP 1 × 5 mg/kg): 9%
Swelling (R -L) ([1]; IP 1 × 5 mg/kg): 19.0 +/- 2.2 × 0.01 mm
ear thickness, Left Ear (No Oxa.) ([1]; IP 1 × 5 mg/kg): 20.6 +/- 0.9 × 0.01 mm
ear thickness, Right Ear (24 hrs Oxa.) ([1]; IP 1 × 5 mg/kg): 39.6 +/- 2.2 × 0.01 mm
Swelling Inc. % ([1]; IP 10 × 5 mg/kg): 14%
Swelling (R -L) ([1]; IP 10 × 5 mg/kg): 19.8 +/- 1.9 × 0.01 mm
ear thickness, Left Ear (No Oxa.) ([1]; IP 10 × 5 mg/kg): 20.2 +/- 0.4 × 0.01 mm
ear thickness, Right Ear (24 hrs Oxa.) ([1]; IP 10 × 5 mg/kg): 40.0 +/- 1.6 × 0.01 mm
Swelling Inc. % ([1]; IP 100 × 5 mg/kg): -37%
died on Day 2 ([1]; IP 100 × 5 mg/kg): 1/5
Swelling (R -L) ([1]; IP 100 × 5 mg/kg): 11.0 +/- 1.1 × 0.01 mm
ear thickness, Left Ear (No Oxa.) ([1]; IP 100 × 5 mg/kg): 21.3 +/- 1.0 × 0.01 mm
ear thickness, Right Ear (24 hrs Oxa.) ([1]; IP 100 × 5 mg/kg): 32.3 +/- 2.0 × 0.01 mm
activation at 0.001 µM ([2]; 0.001 uM): 4%
activation at 0.01 µM ([2]; 0.01 uM): 8%
activation at 0.1 µM ([2]; 0.1 uM): 10%
activation at 1 µM ([2]; 1 uM): 9%
activation at 10 µM ([2]; 10 uM): 2%
SERUM TITER (Reciprocal Serum Dilution) ([3]; IP 0.1 × 3 mg/kg): 32
SERUM TITER (Reciprocal Serum Dilution) ([3]; IP 1 × 3 mg/kg): 32
SERUM TITER (Reciprocal Serum Dilution) ([3]; IP 10 × 3 mg/kg): 128
SERUM TITER (Reciprocal Serum Dilution) ([3]; IP 100 × 3 mg/kg): 16
died on Day 3 ([3]; IP 100 × 3 mg/kg): 2/6
SERUM TITER (Reciprocal Serum Dilution) ([4]; IP 0.1 × 3 mg/kg): 64
SERUM TITER (Reciprocal Serum Dilution) ([4]; IP 1 × 3 mg/kg): 64
SERUM TITER (Reciprocal Serum Dilution) ([4]; IP 10 × 3 mg/kg): 128
SERUM TITER (Reciprocal Serum Dilution) ([4]; IP 100 × 3 mg/kg): 8
died on Day 3 ([4]; IP 100 × 3 mg/kg): 1/6
Minimum inhibitory concentration (MIC) (Candida albicans): > 0.5%
